From PubChem BioAssay (NCI) come the findings set out here.

Molecules are shown by their SMILES. Where “and” joins values, the source holds several entries; their conditions need not be identical. Equal values may be shown once.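 Values below derive from 48-hour exposures of cells grown in 96-well plates, with endpoints linearly interpolated between the two concentrations bracketing the appropriate inhibition level. At the GI50, growth is halved. At the TGI there is no net growth.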

Assay in all cases: DTP human tumour cell line panel, 48 h
The test system of test [1] is HOP-62 NSCLC.
The test system of test [2] is U251 CNS.
Test [3] relates to NCI-H23 lung.
Test [4] has as its system RPMI-8226 leukemia.
Test [5] concerns A549 NSCLC.
Test [6] has as its system SR leukemia.
The test system of test [7] is OVCAR-4 ovarian.
The subject of test [8] is PC-3 prostate.
Test [9] relates to MALME-3M melanoma.
The test system of test [10] is MDA-MB-231 breast.

With `CCN(C(=O)c1cc(F)ccc1Oc1cncnc1N1CC2(CCN(CC3CCC(NS(=O)(=O)CC)CC3)CC2)C1)C(C)C` (stereo not given), the GI50 in test [1], in test [2], in test [3], in test [4], in test [5] and in [6] was over 100 µM in each case. Also, the GI50 in [7], in test [8], in test [9] and in test [10] was over 100 µM throughout. Also, the TGI in test [1], in test [2], in test [3], in test [4], in test [5] and in test [6] was over 100 µM throughout. In addition, the TGI in test [7], in [8], in [9] and in [10] was over 100 µM throughout.
As to `Cc1cc(Cl)ccc1NC(=O)c1cc2ccccc2cc1O`, the GI50 (usually the concentration at which growth is held to half of that of the control) in test [1] was 2.68 µM; in test [2], 0.503 µM; in [3], 0.295 µM; in [4], 0.294 µM; in test [5], 0.931 µM; in test [6] it was 0.443 µM. The GI50 was 1.94 µM in [7], 0.875 µM in test [8], 0.342 µM in test [9] and 1.01 µM in test [10]. The TGI (in general, the concentration giving total growth inhibition) is over 100 µM in test [1]; over 27.5 µM in [2]; over 100 µM in test [3]; 1.18 µM in test [4]; over 100 µM in test [5]; 8.77 µM in test [6]. For the same compound, the TGI in test [7] was over 100 µM; in [8] it was 28.4 µM; in test [9], over 100 µM; in test [10], 25.5 µM.
Consider `COc1cc(Nc2ccnc(NCCCNc3ccnc4cc(Cl)ccc34)n2)cc(OC)c1`, for which the GI50 in [1] is 1.75 µM; in test [2], 1.38 µM; in test [3], 2.67 µM; in test [4], 1.56 µM; in test [5], 2.09 µM; in test [6], 0.423 µM. In addition, the GI50 in [7] is 1.58 µM; in test [8], 2.68 µM; in [9], 2.02 µM; in [10], 1.5 µM. Also, the TGI in test [1] is 5.12 µM; in [2], 2.75 µM; in test [3] it was 10.2 µM; in [4] it was 4.11 µM; in test [5], 5.46 µM; in [6], 2.08 µM. Further, the TGI amounted to 5.1 µM in [7], 14.2 µM in test [8], 3.86 µM in [9] and 3.16 µM in test [10].
For `O=C(/C=C/c1cc([N+](=O)[O-])ccc1Cl)c1ccccc1`, the GI50 in [1] is 25 µM; in test [2], 2.56 µM; in test [3], 15.6 µM; in [4] it was 3.68 µM; in test [5], 22 µM; in test [6], 3.54 µM. Further, the GI50 in test [7] is 33.9 µM; in test [8] it was 24.5 µM; in test [9], 19.4 µM; in test [10], 19.3 µM. In addition, the TGI in test [1] is 63.5 µM; in test [2] it was 8.04 µM; in [3], 36.2 µM; in test [4], 14.6 µM; in test [5], 92.9 µM; in test [6] it was over 100 µM. For the same compound, the TGI in [7] was over 100 µM; in test [8], 82.9 µM; in test [9], 44.7 µM; in test [10] it was 70.7 µM.
On to `O=C(NCc1ccc(Cn2c(=O)sn(-c3ccccc3)c2=O)cc1)OCc1ccc2c(Br)cc(Br)c(O)c2n1`, for which the GI50 in [1] is 1.52 µM; in test [2], 1.52 µM; in test [3] it was 1.4 µM; in test [4], 0.312 µM; in test [5], 1.51 µM; in test [6], 0.376 µM. The GI50 is 0.695 µM in test [7], 0.727 µM in test [8], 1.38 µM in test [9] and 1.18 µM in [10]. Moreover, the TGI in [1] was 3.45 µM; in test [2], 3 µM; in [3], 3.06 µM; in test [4], 1.72 µM; in [5] it was 3.78 µM; in test [6], over 100 µM. The TGI in test [7] was determined as 1.96 µM; in test [8], 2.18 µM; in test [9], 2.78 µM; in test [10] it was 2.53 µM.
With `Oc1[nH]c2ccc(Cl)cc2c1/C=c1/ccc2c(c1)N=C(c1ccc(F)cc1)N=2`, the GI50 in test [1] was 1.77 µM; in [2], 1.81 µM; in [3], 1.65 µM; in test [4] it was 2.91 µM; in test [5], 1.74 µM; in test [6], 2.11 µM. In addition, the GI50 is 1.64 µM in [7], 2.14 µM in [8], 1.83 µM in [9] and 1.63 µM in [10]. Moreover, the TGI was determined as 3.23 µM in test [1]; 3.5 µM in [2]; 3.59 µM in test [3]; 12.2 µM in test [4]; 3.61 µM in test [5]; 5.14 µM in test [6]. Besides, the TGI came out at 3.1 µM in test [7], 5.65 µM in test [8], 3.95 µM in [9] and 4.18 µM in [10].
`NC(=O)c1ccc2nc(-c3ccc(Oc4ccc(Cl)cc4)cc3)[nH]c2c1`: the GI50 is 48.4 µM and 13.7 µM in test [1]; 56.6 µM and 9.01 µM in test [2]; 67.5 µM and 13.5 µM in [3]; > 75 µM and 10.9 µM in test [4]; 49.8 µM and 10.4 µM in test [5]; 17.9 µM and 20.6 µM in test [6]. For the same compound, the GI50 is 41.7 µM and 11.4 µM in test [7]; 55.3 µM and 11.2 µM in test [8]; 32.4 µM and 18.2 µM in [9]; > 75 µM and 18.8 µM in test [10]. Moreover, the TGI in [1] is 75 µM and 36.1 µM; in test [2] it was 75 µM and 22.6 µM; in [3], 75 µM and 32.7 µM; in test [4] it was > 75 µM and 37.6 µM; in [5], 75 µM and 28 µM; in [6] it was 61.5 µM and 57.3 µM. Besides, the TGI in [7] is 75 µM and 31.1 µM; in [8], 75 µM and 25.5 µM; in [9], 75 µM and 33.6 µM; in [10], > 75 µM and 36.3 µM.
